These results are taken from US9855268B2, “Triazolo[4,5-d]pyrimidine derivatives” (Merck Patent GmbH, priority 2013, dated 2018).

Where a name gives a salt, the structure may show the parent alone.

Chain of GCN2 (Q9P2K8 whole entry, species assumed): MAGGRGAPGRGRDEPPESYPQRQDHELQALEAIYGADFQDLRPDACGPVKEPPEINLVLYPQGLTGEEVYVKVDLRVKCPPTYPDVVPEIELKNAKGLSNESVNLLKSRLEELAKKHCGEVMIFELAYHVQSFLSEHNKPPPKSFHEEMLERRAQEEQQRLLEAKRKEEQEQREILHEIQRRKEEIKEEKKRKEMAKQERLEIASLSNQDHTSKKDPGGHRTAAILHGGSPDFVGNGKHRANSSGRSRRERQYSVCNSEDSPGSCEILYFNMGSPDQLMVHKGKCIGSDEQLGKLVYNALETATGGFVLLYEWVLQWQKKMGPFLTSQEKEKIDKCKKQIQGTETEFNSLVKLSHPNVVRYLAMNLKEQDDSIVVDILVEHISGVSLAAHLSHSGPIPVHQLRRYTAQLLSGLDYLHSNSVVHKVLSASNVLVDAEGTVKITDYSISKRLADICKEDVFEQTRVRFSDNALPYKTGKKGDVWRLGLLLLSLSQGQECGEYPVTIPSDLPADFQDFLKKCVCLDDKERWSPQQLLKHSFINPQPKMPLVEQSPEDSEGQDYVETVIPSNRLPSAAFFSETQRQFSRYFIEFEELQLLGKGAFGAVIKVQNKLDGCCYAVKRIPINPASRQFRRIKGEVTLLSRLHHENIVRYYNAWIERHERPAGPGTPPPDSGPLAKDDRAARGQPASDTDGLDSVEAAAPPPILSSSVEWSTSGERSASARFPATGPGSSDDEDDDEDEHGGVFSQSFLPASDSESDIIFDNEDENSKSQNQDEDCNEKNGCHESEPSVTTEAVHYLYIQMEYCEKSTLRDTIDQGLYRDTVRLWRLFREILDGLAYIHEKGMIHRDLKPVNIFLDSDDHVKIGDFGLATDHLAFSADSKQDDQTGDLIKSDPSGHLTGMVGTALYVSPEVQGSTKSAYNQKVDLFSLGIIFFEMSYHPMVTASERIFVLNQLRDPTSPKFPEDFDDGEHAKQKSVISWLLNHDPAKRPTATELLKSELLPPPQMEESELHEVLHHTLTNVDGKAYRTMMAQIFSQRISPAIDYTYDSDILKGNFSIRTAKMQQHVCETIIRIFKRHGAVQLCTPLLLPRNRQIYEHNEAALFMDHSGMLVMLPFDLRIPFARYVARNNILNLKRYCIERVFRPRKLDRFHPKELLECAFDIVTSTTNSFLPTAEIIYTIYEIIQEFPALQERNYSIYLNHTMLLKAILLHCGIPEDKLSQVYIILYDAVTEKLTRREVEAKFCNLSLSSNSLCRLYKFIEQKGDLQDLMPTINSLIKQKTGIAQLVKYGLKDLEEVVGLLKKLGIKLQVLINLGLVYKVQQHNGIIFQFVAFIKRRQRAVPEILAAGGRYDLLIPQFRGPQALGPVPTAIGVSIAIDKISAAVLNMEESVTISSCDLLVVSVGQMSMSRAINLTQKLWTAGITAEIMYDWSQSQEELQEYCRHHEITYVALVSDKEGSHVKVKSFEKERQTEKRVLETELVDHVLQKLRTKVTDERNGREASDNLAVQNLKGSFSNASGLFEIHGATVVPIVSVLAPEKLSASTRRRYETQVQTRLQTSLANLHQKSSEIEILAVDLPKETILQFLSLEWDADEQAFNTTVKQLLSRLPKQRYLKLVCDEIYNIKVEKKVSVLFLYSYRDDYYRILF

The target of this experiment is GCN2 (Homo sapiens, UniProt Q9P2K8). In words: GCN2 enzyme assay (TR-FRET Lanthascreen, GFP-eIF2alpha phosphorylation). In kind it is biochemical. Particulars: 10 μM ATP, 80 nM GFP-eIF2a, 30 nM GCN2. The text has this:
GCN2: Assay Principle & Conditions
This assay can quantificate the activity of the serin kinase GCN2 (general control non-derepressible-2).
This kinase is involved in the stress metabolism of cells. It is activated upon starvation (amino acid depletion). Its natural substrate is eIF2a (eukaryotic initiation factor 2 alpha subunit), a translation factor, which gets activated (phosphorylated) by GCN2 in case of an amino acid bottleneck in the cells. This in turn leads to a halt of the protein synthesis. Inhibition of GCN2 results in stopping this mechanism: The cell can not stop protein production upon “starvation” stress.
The assay is run in two steps: the enzymatic reaction and the detection step. In the first step GCN2 is incubated with 10 μM ATP and 80 nM of the GFP-labelled substrate eIF2alpha at room temperature.
The enzymatic reaction is stopped by addition of EDTA. The amount of phosphorylated eIF2alpha is determined by TR-FRET (Lanthascreen): A complex is formed consisting of antibody and GFP labelled phospho-eIF2a, which allows a FRET upon exitation at 340 nm.
Final Concentrations in the Enzymatic Reaction
Take `COc1ccc(-n2nnc3cnc(N[C@H]4C[C@H](NC(=O)OC(C)(C)C)C4)nc32)cc1` [A32, {trans-3-[3-(4-methoxy-phenyl)-3H-[1,2,3]triazolo[4,5-d]pyrimidin-5-ylamino]-cyclobutyl}-carbamic acid tert-butyl ester]: the IC50 was < 1000 nM.
`COc1ccc(-n2nnc3cnc(N[C@H]4CC[C@H](CNC(=O)OC(C)(C)C)CC4)nc32)cc1` [A33, {4-[3-(4-methoxy-phenyl)-3H-[1,2,3]triazolo[4,5-d]pyrimidin-5-ylamino]-cyclohexylmethyl}-carbamic acid tert-butyl ester] came in with an IC50 of 1000 to 5000 nM.
Take `COc1ccc(-n2nnc3cnc(NC4CCN(C(=O)OC(C)(C)C)CC4)nc32)cc1` [A34, 4-[3-(4-methoxy-phenyl)-3H-[1,2,3]triazolo[4,5-d]pyrimidin-5-ylamino]-piperidine-1-carboxylic acid tert-butyl ester]: the concentration for half-maximal inhibition (IC50) was < 1000 nM.
For `COc1ccc(-n2nnc3cnc(NC4C5CNCC54)nc32)cc1` (centres unmarked) [A37, (3-aza-bicyclo[3.1.0]hex-6-yl)-[3-(4-methoxy-phenyl)-3H-[1,2,3]triazolo[4,5-d]pyrimidin-5-yl]-amine hydrochloride] the value was 5000 to 10000 nM; for `COc1ccc(-n2nnc3cnc(NC4CCNCC4)nc32)cc1` [A40, [3-(4-methoxy-phenyl)-3H-[1,2,3]triazolo[4,5-d]pyrimidin-5-yl]-piperidin-4-yl-amine hydrochloride], < 1000 nM; for `COc1ccc(-n2nnc3cnc(NC4CCCN(C(C)=O)C4)nc32)cc1` (centres unmarked) [A42, 1-{3-[3-(4-methoxy-phenyl)-3H-[1,2,3]triazolo[4,5-d]pyrimidin-5-ylamino]-piperidin-1-yl}-ethanone], < 1000 nM.
`COc1ccc(-n2nnc3cnc(NC4CCCNC4)nc32)cc1` (centres unmarked) [A43, [3-(4-methoxy-phenyl)-3H-[1,2,3]triazolo[4,5-d]pyrimidin-5-yl]-piperidin-3-yl-amine hydrochloride] yielded an IC50 of 1000 to 5000 nM.
For `O=C(O)CCOc1ccc(-n2nnc3cnc(NCCCn4cc([N+](=O)[O-])cn4)nc32)cc1` [A46, 3-(4-{5-[3-(4-nitro-pyrazol-1-yl)-propylamino]-[1,2,3]triazolo[4,5-d]-pyrimidin-3-yl}-phenoxy)-propionic acid] the value was < 1000 nM.
Turning to `Nc1cnn(CCCNc2ncc3nnn(-c4ccc(OCCC(=O)O)cc4)c3n2)c1` [A47, 3-(4-{5-[3-(4-amino-pyrazol-1-yl)-propylamino]-[1,2,3]triazolo[4,5-d]pyrimidin-3-yl}-phenoxy)-propionic acid], the IC50 was < 1000 nM.
For `COc1ccc(-n2nnc3cnc(NC4CCN(C(=O)CN(C)C)CC4)nc32)cc1` [A48, 2-dimethylamino-1-{4-[3-(4-methoxy-phenyl)-3H-[1,2,3]triazolo-[4,5-d]pyrimidin-5-ylamino]-piperidin-1-yl}-ethanone] the value was < 1000 nM; for `COc1ccc(-n2nnc3cnc(NCCN4CCN(C)CC4)nc32)cc1` [A50, [3-(4-methoxy-phenyl)-3H-[1,2,3]triazolo[4,5-d]pyrimidin-5-yl]-[2-(4-methyl-piperazin-1-yl)-ethyl]-amine], 1000 to 5000 nM; for `N[C@H]1CC[C@H](Nc2ncc3nnn(-c4ccc(I)cc4)c3n2)CC1` [A53, N-[3-(4-iodo-phenyl)-3H-[1,2,3]triazolo[4,5-d]pyrimidin-5-yl]-cyclohexane-1,4-diamine], < 1000 nM.
Consider `CCn1cc(-c2ccc(-n3nnc4cnc(N[C@H]5CC[C@H](N)CC5)nc43)cc2)cn1` [A54, N-{3-[4-(1-ethyl-1H-pyrazol-4-yl)-phenyl]-3H-[1,2,3]triazolo[4,5-d]pyrimidin-5-yl}-(trans)-cyclohexane-1,4-diamine trifluoroacetate], for which the IC50 is < 1000 nM.
As to `COc1ccc(-n2nnc3cnc(NCCCN4CCCC4)nc32)cc1` [A61, [3-(4-methoxy-phenyl)-3H-[1,2,3]triazolo[4,5-d]pyrimidin-5-yl]-(3-pyrrolidin-1-yl-propyl)-amine], the IC50 was 5000 to 10000 nM.
For `COc1ccc(-n2nnc3cnc(NC4CN(C(=O)CN(C)C)C4)nc32)cc1` [A62, 2-dimethylamino-1-{3-[3-(4-methoxy-phenyl)-3H-[1,2,3]triazolo[4,5-d]pyrimidin-5-ylamino]-azetidin-1-yl}-ethanone] the value was 1000 to 5000 nM.
In the case of `COc1ccc(-n2nnc3cnc(NC4CN(C(=O)CCN(C)C)C4)nc32)cc1` [A63, 3-dimethylamino-1-{3-[3-(4-methoxy-phenyl)-3H-[1,2,3]triazolo[4,5-d]pyrimidin-5-ylamino]-azetidin-1-yl}-propan-1-one], the IC50 was < 1000 nM.
The value for `COc1ccc(-n2nnc3cnc(N[C@@H]4CCN(C(=O)OC(C)(C)C)C4)nc32)cc1` [A65, (R)-3-[3-(4-methoxy-phenyl)-3H-[1,2,3]triazolo[4,5-d]pyrimidin-5-ylamino]-pyrrolidine-1-carboxylic acid tert-butyl ester] was 1000 to 5000 nM; that for `COc1ccc(-n2nnc3cnc(N[C@H]4CCN(C(=O)OC(C)(C)C)C4)nc32)cc1` [A66, (S)-3-[3-(4-methoxy-phenyl)-3H-[1,2,3]triazolo[4,5-d]pyrimidin-5-ylamino]-pyrrolidine-1-carboxylic acid tert-butyl ester] was 5000 to 10000 nM.
On to `COCCOc1ccc(-n2nnc3cnc(NCCCc4ccccn4)nc32)cc1` [A68, {3-[4-(2-methoxy-ethoxy)-phenyl]-3H-[1,2,3]triazolo[4,5-d]pyrimidin-5-yl}-(3-pyridin-2-yl-propyl)-amine], for which the IC50 is < 1000 nM.
The compound `COc1ccc(-n2nnc3cnc(N[C@@H]4CCNC4)nc32)cc1` [A69, [3-(4-methoxy-phenyl)-3H-[1,2,3]triazolo[4,5-d]pyrimidin-5-yl]-(R)-pyrrolidin-3-yl-amine hydrochloride] yielded an IC50 of 1000 to 5000 nM.
Consider `N[C@H]1CC[C@H](Nc2ncc3nnn(-c4ccc(N5CCCC5=O)cc4)c3n2)CC1` [A71, 1-{4-[5-((trans)-4-amino-cyclohexylamino)-[1,2,3]triazolo[4,5-d]pyrimidin-3-yl]-phenyl}-pyrrolidin-2-one], for which the IC50 is < 1000 nM.
The value for `COc1ccc(-n2nnc3cnc(N[C@H]4CC[C@H](CCO)CC4)nc32)cc1` [A72, trans-2-{4-[3-(4-methoxy-phenyl)-3H-[1,2,3]triazolo[4,5-d]pyrimidin-5-ylamino]-cyclohexyl}-ethanol] was < 1000 nM; that for `COc1ccc(-n2nnc3cnc(N[C@H]4CC[C@@H](CCO)CC4)nc32)cc1` [A73, cis-2-{4-[3-(4-methoxy-phenyl)-3H-[1,2,3]triazolo[4,5-d]pyrimidin-5-ylamino]-cyclohexyl}-ethanol] was < 1000 nM; that for `COc1ccc(-n2nnc3cnc(NCCOCCN)nc32)cc1` [A74, [2-(2-amino-ethoxy)-ethyl]-[3-(4-methoxy-phenyl)-3H-[1,2,3]triazolo[4,5-d]-pyrimidin-5-yl]-amine formate] was 1000 to 5000 nM.
Turning to `N[C@H]1CC[C@H](Nc2ncc3nnn(-c4ccc(F)cc4)c3n2)CC1` [A75, N-[3-(4-fluoro-phenyl)-3H-[1,2,3]triazolo[4,5-d]pyrimidin-5-yl]-(trans)-cyclohexane-1,4-diamine], the IC50 was < 1000 nM.
Turning to `COc1ccc(-n2nnc3cnc(NCCCOCCCN)nc32)cc1` [A76, [3-(3-amino-propoxy)-propyl]-[3-(4-methoxy-phenyl)-3H-[1,2,3]triazolo[4,5-d]pyrimidin-5-yl]-amine formate], the IC50 is < 1000 nM.
